# Laboratory results from the supplement of paper PMC10307832.
# Tests used:
# Assay in all cases: relative viability (nuclei count vs DMSO), 5 days (fraction); higher = more cells survive
# 201T = system: 201T
# Procedure, shortened: (§1)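 Lung cancer cell lines in 1536-well plates got either a single drug or a fixed anchor-drug dose together with five library-drug doses (not always all listed) in √10 steps, by pin tool, on the day after seeding. Nuclei were counted after 5 days, and relative viability is the treated-to-vehicle ratio of nuclei counts. Values are medians of duplicate plates.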
# HCC-44 = system: HCC-44
# Procedure, shortened: as §1
# NCI-H2170 = system: NCI-H2170
# Procedure, shortened: as §1
# NCI-H647 = system: NCI-H647
# Procedure, shortened: as §1
# EPLC-272H = system: EPLC-272H
# Procedure, shortened: as §1
# LCLC-97TM1 = system: LCLC-97TM1
# Procedure, shortened: as §1
# HCC-827 = system: HCC-827
# Procedure, shortened: as §1
# SW 1573 = system: SW 1573
# Procedure, shortened: as §1
# COR-L 105 = system: COR-L 105
# Procedure, shortened: as §1
# H3255 = system: H3255
# Procedure, shortened: as §1
# NCI-H2087 = system: NCI-H2087
# Procedure, shortened: as §1
# PC-3 [JPC-3] = system: PC-3 [JPC-3]
# Procedure, shortened: as §1
# LU99A = system: LU99A
# Procedure, shortened: as §1
# NCI-H650 = system: NCI-H650
# Procedure, shortened: as §1
# NCI-H2342 = system: NCI-H2342
# Procedure, shortened: as §1
# EKVX = system: EKVX
# Procedure, shortened: as §1
# NCI-H2085 = system: NCI-H2085
# Procedure, shortened: as §1
# NCI-H1666 = system: NCI-H1666
# Procedure, shortened: as §1
# NCI-H1437 = system: NCI-H1437
# Procedure, shortened: as §1
# LOU-NH91 = system: LOU-NH91
# Procedure, shortened: as §1
# BEN = system: BEN
# Procedure, shortened: as §1
# NCI-H1975 = system: NCI-H1975
# Procedure, shortened: as §1
smiles,measurement,setting,value
COc1nc(C)cnc1NS(=O)(=O)c1cccnc1-c1ccc(-c2nnco2)cc1 [Zibotentan] + N=C(N)NC(=N)NCCc1ccccc1 [Phenformin] (partner 250 µM),relative viability,201T; first compound 0.08 µM,0.477
same,relative viability,201T; first compound 0.253 µM,0.451
same,relative viability,201T; first compound 0.8 µM,0.441
same,relative viability,201T; first compound 2.53 µM,0.442
same,relative viability,HCC-44; first compound 0.08 µM,0.167
same,relative viability,HCC-44; first compound 0.253 µM,0.201
same,relative viability,HCC-44; first compound 0.8 µM,0.273
same,relative viability,HCC-44; first compound 2.53 µM,0.158
same,relative viability,NCI-H2170; first compound 0.08 µM,0.451
same,relative viability,NCI-H2170; first compound 0.253 µM,0.389
same,relative viability,NCI-H2170; first compound 0.8 µM,0.436
same,relative viability,NCI-H2170; first compound 2.53 µM,0.39
same,relative viability,NCI-H647; first compound 0.08 µM,0.472
same,relative viability,NCI-H647; first compound 0.253 µM,0.512
same,relative viability,NCI-H647; first compound 0.8 µM,0.37
same,relative viability,NCI-H647; first compound 2.53 µM,0.531
same,relative viability,EPLC-272H; first compound 0.08 µM,0.287
same,relative viability,EPLC-272H; first compound 0.253 µM,0.296
same,relative viability,EPLC-272H; first compound 0.8 µM,0.306
same,relative viability,EPLC-272H; first compound 2.53 µM,0.306
same,relative viability,LCLC-97TM1; first compound 0.08 µM,0.457
same,relative viability,LCLC-97TM1; first compound 0.253 µM,0.449
same,relative viability,LCLC-97TM1; first compound 0.8 µM,0.464
same,relative viability,LCLC-97TM1; first compound 2.53 µM,0.465
same,relative viability,HCC-827; first compound 0.08 µM,0.429
same,relative viability,HCC-827; first compound 0.253 µM,0.399
same,relative viability,HCC-827; first compound 0.8 µM,0.387
same,relative viability,HCC-827; first compound 2.53 µM,0.421
same,relative viability,SW 1573; first compound 0.08 µM,0.397
same,relative viability,SW 1573; first compound 0.8 µM,0.359
same,relative viability,SW 1573; first compound 2.53 µM,0.334
same,relative viability,COR-L 105; first compound 0.08 µM,0.382
same,relative viability,COR-L 105; first compound 0.253 µM,0.423
same,relative viability,COR-L 105; first compound 0.8 µM,0.406
same,relative viability,COR-L 105; first compound 2.53 µM,0.554
same,relative viability,H3255; first compound 0.08 µM,0.386
same,relative viability,H3255; first compound 0.253 µM,0.326
same,relative viability,H3255; first compound 0.8 µM,0.307
same,relative viability,H3255; first compound 2.53 µM,0.354
same,relative viability,NCI-H2087; first compound 0.08 µM,0.423
same,relative viability,NCI-H2087; first compound 0.253 µM,0.428
same,relative viability,NCI-H2087; first compound 0.8 µM,0.54
same,relative viability,NCI-H2087; first compound 2.53 µM,0.486
same,relative viability,PC-3 [JPC-3]; first compound 0.08 µM,0.459
same,relative viability,PC-3 [JPC-3]; first compound 0.253 µM,0.466
same,relative viability,PC-3 [JPC-3]; first compound 0.8 µM,0.474
same,relative viability,PC-3 [JPC-3]; first compound 2.53 µM,0.499
same,relative viability,LU99A; first compound 0.08 µM,0.922
same,relative viability,LU99A; first compound 0.253 µM,0.853
same,relative viability,LU99A; first compound 0.8 µM,0.795
same,relative viability,LU99A; first compound 2.53 µM,0.897
same,relative viability,NCI-H650; first compound 0.08 µM,0.445
same,relative viability,NCI-H650; first compound 0.253 µM,0.389
same,relative viability,NCI-H650; first compound 0.8 µM,0.508
same,relative viability,NCI-H650; first compound 2.53 µM,0.461
same,relative viability,NCI-H2342; first compound 0.08 µM,0.782
same,relative viability,NCI-H2342; first compound 0.253 µM,0.595
same,relative viability,NCI-H2342; first compound 0.8 µM,0.603
same,relative viability,NCI-H2342; first compound 2.53 µM,0.559
same,relative viability,EKVX; first compound 0.08 µM,0.242
same,relative viability,EKVX; first compound 0.253 µM,0.238
same,relative viability,EKVX; first compound 0.8 µM,0.249
same,relative viability,EKVX; first compound 2.53 µM,0.245
same,relative viability,NCI-H2085; first compound 0.08 µM,0.73
same,relative viability,NCI-H2085; first compound 0.253 µM,0.699
same,relative viability,NCI-H2085; first compound 0.8 µM,0.803
same,relative viability,NCI-H2085; first compound 2.53 µM,0.814
same,relative viability,NCI-H1666; first compound 0.08 µM,0.515
same,relative viability,NCI-H1666; first compound 0.253 µM,0.54
same,relative viability,NCI-H1666; first compound 0.8 µM,0.596
same,relative viability,NCI-H1666; first compound 2.53 µM,0.559
same,relative viability,NCI-H1437; first compound 0.08 µM,0.308
same,relative viability,NCI-H1437; first compound 0.253 µM,0.297
same,relative viability,NCI-H1437; first compound 0.8 µM,0.297
same,relative viability,NCI-H1437; first compound 2.53 µM,0.347
same,relative viability,LOU-NH91; first compound 0.08 µM,0.712
same,relative viability,LOU-NH91; first compound 0.253 µM,0.683
same,relative viability,LOU-NH91; first compound 0.8 µM,0.798
same,relative viability,LOU-NH91; first compound 2.53 µM,0.819
same,relative viability,BEN; first compound 0.08 µM,0.278
same,relative viability,BEN; first compound 0.253 µM,0.261
same,relative viability,BEN; first compound 0.8 µM,0.241
same,relative viability,BEN; first compound 2.53 µM,0.264
same,relative viability,NCI-H1975; first compound 0.08 µM,0.428
same,relative viability,NCI-H1975; first compound 0.253 µM,0.398
same,relative viability,NCI-H1975; first compound 0.8 µM,0.419
same,relative viability,NCI-H1975; first compound 2.53 µM,0.413
